Laboratory results reported in patent US20210308089A1, “METHODS OF TREATING AND/OR PREVENTING VIRAL INFECTIONS AND/OR DISEASES CAUSED BY VIRUSES IN A SUBJECT IN NEED THEREOF” (priority 2020, published 2021).

Test system: patients of the REDUCE-IT and earlier EPA placebo-controlled trials
Experiment: Example 3: adverse events by risk ratio, icosapent ethyl vs placebo (candidate categories; infectious disease terms of interest)
Settings: R-I

In the case of CC/C=C\C/C=C\C/C=C\C/C=C\C/C=C\CCCC(=O)OCC [icosapent ethyl, eicosapentaenoic acid ethyl ester], the “ARR: Bone Fractures (AE table)” value is reported as 0.0%, the “ARR: Bronchiectasis (AE table)” value is reported as −0.1% and the “ARR: Bronchitis chronic (AE table)” value is reported as −0.1%. For the same compound, the “ARR: CKD (AE table)” value was 0.1%, the “ARR: COPD (AE table)” value was 0.2% and the “ARR: Carotid bruit (AE table)” value was −0.3%. For the same compound, the “ARR: Cholestasis (AE table)” value was 0.0%, the “ARR: Chrohn's Disease (AE table)” value was −0.0% and the “ARR: Cognitive Decline: Attention disorders and disturbances (AE table)” value was 0.0%. For the same compound, the “ARR: Cognitive Decline: Cognitive and attention disorders and disturbances (AE table)” value was 0.0%, the “ARR: Cough (AE table)” value was 0.0% and the “ARR: Decreased Appetite (AE table)” value was 0.5%. For the same compound, the “ARR: Deep Venous Thromboembolism (AE table)” value was −0.1%, the “ARR: Depression: Depressed mood disorders and disturbances (AE table)” value was 0.3% and the “ARR: Depression: Depressive disorders (AE table)” value was 0.3%. For the same compound, the “ARR: Depression: Depressive disorders - Agitated depression (AE table)” value was 0.0%, the “ARR: Depression: Depressive disorders - Depression (AE table)” value was 0.2% and the “ARR: Depression: Depressive disorders - Major depression (AE table)” value was 0.0%. For the same compound, the “ARR: Depression: Depressive disorders - Persistent depressive disorder (AE table)” value was 0.0%, the “ARR: Depression: Mood alterations - Depressed mood (AE table)” value was 0.0% and the “ARR: Depression: Mood alterations - Depressive symptom (AE table)” value was −0.0%. The “ARR: Depression: Mood alterations with depressive symptoms (AE table)” value was −0.0%, the “ARR: Dermatitis psoriasiform (AE table)” value was 0.0% and the “ARR: Dermatitis, allergic (AE table)” value was −0.2%. For the same compound, the “ARR: Diabetic Nephropathy (AE table)” value was −0.0%, the “ARR: ESRD (AE table)” value was −0.0% and the “ARR: Ear infection (AE table)” value was −0.2%. The “ARR: Embolism and Thrombosis (AE table)” value was 0.1%, the “ARR: Emphysema (AE table)” value was −0.2% and the “ARR: Epilepsy (AE table)” value was 0.0%. For the same compound, the “ARR: Erectile dysfunction (AE table)” value was −0.4%, the “ARR: Furuncle (AE table)” value was −0.1% and the “ARR: Gastroenteritis, viral (AE table)” value was −0.3%. The “ARR: Gastroesophageal reflux (AE table)” value was −0.1%, the “ARR: Gingivitis (AE table)” value was −0.1% and the “ARR: Glomerulonephritis and Nephrotic Syndrome (AE table)” value was −0.1%. For the same compound, the “ARR: Guttate psoriasis (AE table)” value was 0.0%, the “ARR: Helicobacter infection (AE table)” value was −0.1% and the “ARR: Hepatitis C (AE table)” value was 0.0%. For the same compound, the “ARR: Herpes Zoster (AE table)” value was −0.1%, the “ARR: Herpes simplex (AE table)” value was −0.1% and the “ARR: Hyperglycemia (AE table)” value was −0.5%. For the same compound, the “ARR: Hyperkalemia (AE table)” value was −0.6%, the “ARR: Hypertension (AE table)” value was −0.6% and the “ARR: Hypertensive Crisis (AE Table)” value was −0.3%. For the same compound, the “ARR: Hypokalemia (AE table)” value was 0.1%, the “ARR: Hypomagnesemia (AE table)” value was −0.3% and the “ARR: Infected bite (AE table)” value was −0.0%. For the same compound, the “ARR: Influenza (AE table)” value was −0.2%, the “ARR: Influenza like illness (AE table)” value was −0.1% and the “ARR: Jaundice cholestatic (AE table)” value was 0.1%. The “ARR: Large intestine polyps (AE table)” value was −0.2%, the “ARR: Limb Fractures and Dislocations (AE table)” value was −0.1% and the “ARR: Lupus (AE table)” value was −0.0%. The “ARR: Microalbuminuria (AE table)” value was −0.3%, the “ARR: Migraine (AE table)” value was 0.2% and the “ARR: Mucosal inflammation (AE table)” value was −0.0%. The “ARR: Multiple Sclerosis (AE table)” value was −0.0%, the “ARR: Muscle spasms (AE table)” value was −1.1% and the “ARR: NASH (AE table)” value was −0.1%. The “ARR: NASH for b/l NFS >0.675 (AE table)” value was −0.4%, the “ARR: NASH+Hepatic Steatosis for NFS >0.675 (AE table)” value was −0.5% and the “ARR: Nasopharyngitis, Mild Severity (AE table)” value was −0.2%. For the same compound, the “ARR: Nephrolithiasis (AE table)” value was 0.1%, the “ARR: Nephropathies (AE table)” value was −0.2% and the “ARR: Nephrotic Syndrome (AE table)” value was −0.0%. The “ARR: Orthopnea (AE table)” value was −0.1%, the “ARR: PTSD (AE table)” value was −0.0% and the “ARR: Pancytopenia (AE table)” value was −0.1%. The “ARR: Pneumonia (AE table)” value was −0.3%, the “ARR: Proteinuria (AE table)” value was −0.2% and the “ARR: Psoriasis (AE table)” value was 0.3%. The “ARR: Psoriatic Conditions (AE table)” value was 0.3%, the “ARR: Psychosis: Psychotic disorder NEC (AE table)” value was −0.0% and the “ARR: Pulmonary Edema (AE table)” value was −0.2%. The “ARR: Respiratory Failure (AE table)” value was −0.0%, the “ARR: Respiratory tract infection (AE table)” value was −0.1% and the “ARR: Rheumatoid Arthritis (AE table)” value was −0.1%. For the same compound, the “ARR: Rhinitis (AE table)” value was −0.1%, the “ARR: Schizophrenia NEC (AE table)” value was −0.0% and the “ARR: Sepsis (AE table)” value was −0.2%. For the same compound, the “ARR: Severe chronic obstructive pulmonary disease (AE table)” value was −0.1%, the “ARR: Severe dermatitis, allergic (AE table)” value was −0.1% and the “ARR: Severe gastroenteritis (AE table)” value was −0.1%. For the same compound, the “ARR: Severe sepsis (AE table)” value was −0.2%, the “ARR: Severe systemic inflammatory response syndrome (AE table)” value was −0.1% and the “ARR: Severe urinary tract infection (AE table)” value was −0.2%. For the same compound, the “ARR: Systemic inflammatory response syndrome (AE table)” value was −0.1%, the “ARR: Tooth infection (AE table)” value was −0.2% and the “ARR: Ulcerative Colitis (AE table)” value was −0.0%. For the same compound, the “ARR: Upper respiratory tract infection (AE table)” value was −0.2%, the “ARR: Vascular hypertensive disorder (AE table)” value was −0.8% and the “ARR: Vulvovaginal mycotic infection (AE table)” value was −0.1%. For the same compound, the “ARR: Wheezing (AE table)” value was −0.3%, the “NNT: ADHD (AE table)” value was −8362005 and the “NNT: Allergic sinusitis (AE table)” value was 2046. The “NNT: Alzheimer's Disease (AE table)” value was −3344802, the “NNT: Asthma (AE table)” value was −1019 and the “NNT: Atelectasis (AE table)” value was 372. The “NNT: Bipolar Disease (AE table)” value was 2045, the “NNT: Blood CPK increased (AE table)” value was 164 and the “NNT: Blood glucose increased (AE table)” value was 682. For the same compound, the “NNT: Bone Fractures (AE table)” value was −4088, the “NNT: Bronchiectasis (AE table)” value was 1364 and the “NNT: Bronchitis chronic (AE table)” value was 1023. For the same compound, the “NNT: CKD (AE table)” value was −680 and the “NNT: COPD (AE table)” value was −453.
